Source: US20130022620A1, “ASSAYS AND METHODS PERTAINING TO PRE-AMYLOID INTERMEDIATES” (priority 2011, published 2013)
Positions of bridges follow the written chain, without caps; N, C: chain ends. No end group written: not given here.

Assays:
rat INS-1 β-cells = assay: AlamarBlue cell viability assay of β-cells; type: cell-based; details: for onset and duration of toxicity compared to wild type: side-by-side with kinetics, 20 uM for the Ser-20 mutants
Protocol: Transformed rat insulinoma-1 (INS-1) β-cells (which express RAGE) are a pancreatic beta cell line commonly used for studies of h-IAPP induced toxicity. INS-1 cells were grown in RPMI 1640 supplemented with 10% fetal bovine serum (FBS), 11 mM glucose, 10 mM Hepes, 2 mM L-glutamine, 1 mM sodium pyruvate, 50 μM β-mercaptoethanol, 100 U/ml penicillin, and […] streptomycin. Cells were maintained at 37° C./5% CO2.
Cyto-toxicity was measured by AlamarBlue assay. INS-1 β-cells were seeded at a density of 30,000 cells per well in 96-well plates and cultured for 24 hours prior to stimulation with IAPP. Human and rat IAPP were dissolved and incubated in 16 mM tris HCl (pH 7.4, 25° C.) prior to cell stimulation. AlamarBlue was diluted ten-fold in culture media and cells were incubated for 5 hours at 37° C. Fluorescence (excitation 530; emission 590 nm) was measured on a Beckman Coulter DTX880 fluorescent plate reader. Values calculated were relative to those of control cells treated with buffer only. All values represent means±SEM (n=3).
Changes in cell morphology were examined by light microscopy to provide a second method of evaluating cell viability. Transformed rat INS-1 beta cells were photographed immediately prior to assessment of toxicity by Alamar blue cell viability assays. Images were taken using an Olympus BX-61 light microscope.

[1] = Thioflavin-T kinetics and TEM of amyloid formation by IAPP peptides; type: physicochemical
Protocol: Thioflavin-T fluorescence was used to monitor the time course of h-IAPP amyloid formation in the presence and absence of sRAGE. To identify which form(s) of h-IAPP interact with RAGE, sRAGE was added to h-IAPP at various time points during the h-IAPP amyloid formation reaction. Aliquots of the reaction mixture were analyzed by adding 100 uL aliquots of the amyloid formation reaction to 96-well plates containing 8 uL of 60 uM thioflavin-T solution at various incubation times after initiation of the amyloid formation reaction. Fluorescence was measured using a Beckman Coulter DTX880 fluorescent plate reader (excitation: 445 nm and emission: 485 nm). Final solution conditions contained 16 mM tris HCl and […] thioflavin-T (pH 7.4). […] All values represent means±SEM (n=3).
Transient kinetic species of h-IAPP were characterized by TEM. TEM images confirm the presence or absence of amyloid which were indicated by thioflavin-T fluorescence. Aliquots (4 μl) were removed from the reaction mixtures monitored by thioflavin-T assays, placed on a carbon-coated 200-mesh copper grid and negatively stained with saturated uranyl acetate. The samples were imaged with a Philips CM12 transmission electron microscope at the New York University electron microscopy core facility. Final solution conditions contained 16 mM tris HCl (pH 7.4).

sRAGE [2] = target: T1, sRAGE (Homo sapiens, UniProt Q15109); assay: Difference CD of IAPP peptides with sRAGE; type: binding; details: end point of the reactions
T1 construct: the soluble extracellular domain of RAGE (sRAGE); made in house; host or cells: Sf9 insect cells (baculovirus)
T1 sequence (Q15109 23-342): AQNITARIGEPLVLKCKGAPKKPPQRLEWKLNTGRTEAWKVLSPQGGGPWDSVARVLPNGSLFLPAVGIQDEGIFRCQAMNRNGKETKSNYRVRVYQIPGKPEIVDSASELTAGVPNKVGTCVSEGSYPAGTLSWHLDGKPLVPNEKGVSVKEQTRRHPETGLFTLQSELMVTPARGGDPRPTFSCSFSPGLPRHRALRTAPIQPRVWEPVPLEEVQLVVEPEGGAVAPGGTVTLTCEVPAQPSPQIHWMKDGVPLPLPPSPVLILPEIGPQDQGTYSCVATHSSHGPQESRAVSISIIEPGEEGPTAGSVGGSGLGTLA
Protocol: CD measurements of IAPP, sRAGE and IAPP/sRAGE reactions were taken at various incubation times. Far-UV CD experiments monitor the development of secondary structure of h-IAPP species and give insight into the conformational requirement for IAPP/RAGE-binding. All CD experiments were performed on an Applied Photophysics circular dichroism spectrophotometer by directly transferring 300 μL of peptide solution from kinetic assays into a 0.1 cm quartz cuvette a few minutes prior to data collection. The CD spectra for sRAGE and tris HCl buffer was subtracted from all RAGE/IAPP mixtures. The final far-UV CD data was collected over the range of 190 to 260 nm. Final solution conditions contained 16 mM tris HCl (pH 7.4).

sRAGE [3] = target: T1, sRAGE; assay: Tryptophan fluorescence quenching assay of sRAGE binding; details: sRAGE added at different time points of the reaction, 1:1 molar ratio
Source text: The quenching of tryptophan fluorescence indicates binding. Fluorescence measurements were made at right angle in a […] dual path length quartz cuvette, using a Photon Technology International fluorescent spectrometer (280 nm excitation and 350 nm emission). Background fluorescence from buffer and IAPP peptides were negligible. The fluorescence quantum yield reported for each time point is an average of 20 reads over 20 seconds (2.5 nm bandwidth and 1 second integration time). Final solution conditions contained 16 mM tris HCl (pH 7.4).

[4] = test system: MCP-1 and IL-1β mRNA expression; assay: qRT-PCR of MCP-1 and IL-1β mRNA in smooth muscle cells; type: cell-based, mouse; details: peptide stimulation
Protocol: Mouse vascular SMCs were cultured from the aortas of 10-week-old male mice using a modification of the procedure of Tarvo and Barret. See Tarvo et al. Blood Vessels. 1980; 17:110-116. SMCs were cultured following an explant protocol in accordance with institutional guidelines. Cultures were composed of 95% SM-α-actin positivity based on immunostaining.
(§1) Assays for qRT-PCR were carried out in 6-well plates. Total cellular RNA was isolated from h-IAPP stimulated β-cells using Qiagen RNA isolation kit, and the quality of RNA samples was determined by measurement of 260:280 ratio. Only samples with a 260:280 ratio of 2.0 or higher were used for reverse transcription. RNA samples were also treated by RNAse-free DNAse to avoid genomic DNA contamination. One microgram of RNA from each sample was reverse-transcribed to cDNA using MCP-1 and IL-1β primers. Non-template negative controls were also performed to monitor non-specific reactions. RNA isolated from rat IAPP and non-h-IAPP treated beta cells were used as negative controls. Equal amounts of RNA were used in each qRT-PCR reaction, and 18S was used as the internal control for amplification at the same time. qRT-PCR reactions were carried out using an Applied Biosystems 7500 RealTime PCR machine. The relative mRNA contents were normalized using 18S and quantification was carried out using qRT-PCR Quantifier Software.

[5] = test system: MCP-1 and IL-1β mRNA expression; assay: qRT-PCR of MCP-1 and IL-1β mRNA in β-cells; type: cell-based, rat; details: β-cells stimulated with peptide
Protocol: as §1

[6] = target: T2, soluble RAGE (sRAGE), soluble extracellular domain of the receptor for advanced glycation endproducts (human, UniProt Q15109 23-342, glycosylated (heterogeneity in GlcN and GlcNAc glycosylation by MALDI-TOF)); assay: tryptophan fluorescence quenching; sRAGE added at different time points of the aggregation reaction
T2 construct: The purification protocol gives two species, full length (36,254 Da) and C-truncated (34,710 Da); also called human sRAGE
T2 sequence (Q15109 23-342): as above

[7] = target: T2, soluble RAGE (sRAGE), soluble …; assay: tryptophan fluorescence quenching
Source text: (E) Trp fluorescence quenching experiments.
Binding of ligands to this region should alter the environment of the tryptophans and lead to a change in their fluorescent quantum yield. Thus, the quenching of tryptophan fluorescence can be used to monitor binding.

3×L-IAPP: h-IAPP triple mutant in which leucines replaced F15, F23 and Y37 (KCNTATCATQRLANLLVHSSNNLGAILSSTNVGSNTL-NH2; disulfide 2-7; N-terminus assumed; SMILES CC[C@H](C)[C@H](NC(=O)[C@H](C)NC(=O)CNC(=O)[C@H](CC(C)C)NC(=O)[C@H](CC(N)=O)NC(=O)[C@H](CC(N)=O)NC(=O)[C@H](CO)NC(=O)[C@H](CO)NC(=O)[C@H](Cc1c[nH]cn1)NC(=O)[C@@H](NC(=O)[C@H](CC(C)C)NC(=O)[C@H](CC(C)C)NC(=O)[C@H](CC(N)=O)NC(=O)[C@H](C)NC(=O)[C@H](CC(C)C)NC(=O)[C@H](CCCNC(=N)N)NC(=O)[C@H](CCC(N)=O)NC(=O)[C@@H](NC(=O)[C@H](C)NC(=O)[C@@H]1CSSC[C@H](NC(=O)[C@@H](N)CCCCN)C(=O)N[C@@H](CC(N)=O)C(=O)N[C@@H]([C@@H](C)O)C(=O)N[C@@H](C)C(=O)N[C@@H]([C@@H](C)O)C(=O)N1)[C@@H](C)O)C(C)C)C(=O)N[C@@H](CC(C)C)C(=O)N[C@@H](CO)C(=O)N[C@@H](CO)C(=O)N[C@H](C(=O)N[C@@H](CC(N)=O)C(=O)N[C@H](C(=O)NCC(=O)N[C@@H](CO)C(=O)N[C@@H](CC(N)=O)C(=O)N[C@H](C(=O)N[C@@H](CC(C)C)C(N)=O)[C@@H](C)O)C(C)C)[C@@H](C)O; UniProt P10997 34-70, looked up, variant F15L F23L Y37L)
onset and duration of toxicity compared to wild type (rat INS-1 β-cells): longer duration of toxicity than observed with wild type | amyloid formation, slower than wild type ([1]; triple mutant, leucines at positions 15, 23 and 37): 6 fold

S20K-IAPP: h-IAPP with Ser-20 substituted by lysine (KCNTATCATQRLANFLVHSKNNFGAILSSTNVGSNTY-NH2; disulfide 2-7; N-terminus assumed; SMILES CC[C@H](C)[C@H](NC(=O)[C@H](C)NC(=O)CNC(=O)[C@H](Cc1ccccc1)NC(=O)[C@H](CC(N)=O)NC(=O)[C@H](CC(N)=O)NC(=O)[C@H](CCCCN)NC(=O)[C@H](CO)NC(=O)[C@H](Cc1c[nH]cn1)NC(=O)[C@@H](NC(=O)[C@H](CC(C)C)NC(=O)[C@H](Cc1ccccc1)NC(=O)[C@H](CC(N)=O)NC(=O)[C@H](C)NC(=O)[C@H](CC(C)C)NC(=O)[C@H](CCCNC(=N)N)NC(=O)[C@H](CCC(N)=O)NC(=O)[C@@H](NC(=O)[C@H](C)NC(=O)[C@@H]1CSSC[C@H](NC(=O)[C@@H](N)CCCCN)C(=O)N[C@@H](CC(N)=O)C(=O)N[C@@H]([C@@H](C)O)C(=O)N[C@@H](C)C(=O)N[C@@H]([C@@H](C)O)C(=O)N1)[C@@H](C)O)C(C)C)C(=O)N[C@@H](CC(C)C)C(=O)N[C@@H](CO)C(=O)N[C@@H](CO)C(=O)N[C@H](C(=O)N[C@@H](CC(N)=O)C(=O)N[C@H](C(=O)NCC(=O)N[C@@H](CO)C(=O)N[C@@H](CC(N)=O)C(=O)N[C@H](C(=O)N[C@@H](Cc1ccc(O)cc1)C(N)=O)[C@@H](C)O)C(C)C)[C@@H](C)O; UniProt P10997 34-70, looked up, variant S20K)
onset and duration of toxicity compared to wild type (rat INS-1 β-cells): shifts the onset of toxicity to later time points and increases its duration | rate of aggregation compared to wild type ([1]; 20 uM, pH 7.4 25° C.): slower aggregation rate

rat IAPP: non-amyloidogenic, non-toxic rat IAPP used as negative control
cell toxicity (AlamarBlue cell viability, light microscopy) (rat INS-1 β-cells; peptide incubated in buffer at room temperature for various times, then applied to INS-1 β-cells): No toxicity was observed at any time point | interaction with sRAGE (difference CD) (sRAGE [2]): does not interact | binding to sRAGE (tryptophan fluorescence quenching) (sRAGE [3]): No binding | MCP-1 and IL-1β mRNA expression in smooth muscle cells [4]: rat IAPP does not | amyloid formation (thioflavin-T) ([1]; peptide by itself): does not form amyloid at any time point | MCP-1 and IL-1β mRNA expression [5]: does not induce up-regulation

B1: I26P-IAPP (I26P point mutant of human IAPP) (peptide)
peptide: KCNTATCATQRLANFLVHSSNNFGAPLSSTNVGSNTY-NH2
modifications: disulfide 2-7; N-terminus assumed
SMILES: CC(C)C[C@H](NC(=O)[C@H](CCCNC(=N)N)NC(=O)[C@H](CCC(N)=O)NC(=O)[C@@H](NC(=O)[C@H](C)NC(=O)[C@@H]1CSSC[C@H](NC(=O)[C@@H](N)CCCCN)C(=O)N[C@@H](CC(N)=O)C(=O)N[C@@H]([C@@H](C)O)C(=O)N[C@@H](C)C(=O)N[C@@H]([C@@H](C)O)C(=O)N1)[C@@H](C)O)C(=O)N[C@@H](C)C(=O)N[C@@H](CC(N)=O)C(=O)N[C@@H](Cc1ccccc1)C(=O)N[C@@H](CC(C)C)C(=O)N[C@H](C(=O)N[C@@H](Cc1c[nH]cn1)C(=O)N[C@@H](CO)C(=O)N[C@@H](CO)C(=O)N[C@@H](CC(N)=O)C(=O)N[C@@H](CC(N)=O)C(=O)N[C@@H](Cc1ccccc1)C(=O)NCC(=O)N[C@@H](C)C(=O)N1CCC[C@H]1C(=O)N[C@@H](CC(C)C)C(=O)N[C@@H](CO)C(=O)N[C@@H](CO)C(=O)N[C@H](C(=O)N[C@@H](CC(N)=O)C(=O)N[C@H](C(=O)NCC(=O)N[C@@H](CO)C(=O)N[C@@H](CC(N)=O)C(=O)N[C@H](C(=O)N[C@@H](Cc1ccc(O)cc1)C(N)=O)[C@@H](C)O)C(C)C)[C@@H](C)O)C(C)C
notes: also called nontoxic, aggregation-prone I26P-IAPP variant of h-IAPP
binding result [6]: no binding

B2: rat IAPP (peptide, UniProt P12969 38-74, looked up)
peptide: KCNTATCATQRLANFLVRSSNNLGPVLPPTNVGSNTY-NH2
modifications: disulfide 2-7
notes: mature; also called non-toxic rat IAPP; non-amyloidogenic rat IAPP
binding result [7]: no binding (tested: 20 µM rat IAPP, 1:1 molar ratio)
